Test [1] deals with Klebsiella pneumoniae 272. The test can be described thus: serial dilution test in the microtiter system, MIC. Type of test: cell-based. The conditions noted are these: Klebs. pneum. 272, 37° C., 18-20 hours. Here is the method: (§1) The tests were performed according to the method of the serial dilution test in the microtiter system. The effect of the test substances on bacteriostasis was examined in a fluid medium. The bacteristatic activity was examined at the following concentrations: 80, 40, 20, 10, 5, 2.5, 1.25, 0.6, 0.3, 0.08 and 0.01 μgm/ml.
(§2) The nutrient medium consisted of: 10 gm of peptone, 8 gm of meat extract oxoid, 3 gm of sodium chloride, and 2 gm of sec. sodium phosphate diluted with distilled water to 1000 ml (pH 7.2-7.4). Only in the test against streptococci was 1% of glucose added. The age of the primary cultures was about 20 hours. The standardization of the microorganism suspension was effected by means of a photometer according to the method of Eppendorf (test tube diameter 14 mm, filter 546 nm), using for comparison a barium sulfate suspension formed by the addition of 3.0 ml of 1% barium chloride solution to 97 ml of 1% sulfuric acid. After the standardization, the Streptococcus aronson was further diluted to a concentration of 1:15 and the other microorganisms to a concentration of 1:1500 using a sodium chloride solution. 16 mgm of the test compound were placed into a 10 ml measuring flask, and the flask was filled up to the mark with the solvent. The further dilution series was standardized with distilled water or the particular solvent.
(§3) The cavities of microtiter plates were filled with 0.2 ml of nutrient medium. Then, 0.01 ml of the appropriate test compound solution was added, followed by inoculation with 0.01 ml of the standardized microorganism suspension. The bacteria were incubated at 37° C. for 18-20 hours. Control tests using only the solvent were carried out simultaneously.
(§4) The measurement was carried out macroscopically to determine the minimum inhibitory concentration (the lowest still bacteriostatically effective concentration).
(§5) Staphylococcus aureus SG 511, Escherichia coli ATCC 9637 and 11775, Pseudomonas aeruginosa Hamburgensis, ATCC 10145 and Pseudomonas aeruginosa Walter, Serratia marcescens ATCC 13880, Klebsiella pneumoniae ATCC 10031 and 272 and Proteus mirabilis Hamburgensis.

The test system of test [2] is Klebsiella pneumoniae ATCC 10031. The test can be described thus: serial dilution test in the microtiter system, MIC. Type of test: cell-based. The settings on record: ATCC10031, Klebs. pneum. ATCC 10031, 37° C., 18-20 hours. Here is the method: as §1, §2, §3, §4, §5
The test system of test [3] is Proteus mirabilis Hamburgensis. The test can be described thus: serial dilution test in the microtiter system, MIC. Type of test: cell-based. The settings on record: Prot. mirabilis ham., 37° C., 18-20 hours. Here is the method:
as §1, §2, §3, §4, §5

Test [4] has as its system Serratia marcescens ATCC 13880. The test can be described thus: serial dilution test in the microtiter system, MIC. Type of test: cell-based. The settings on record: ATCC13880, Serrat. marsec., 37° C., 18-20 hours. Here is the method: as §1, §2, §3, §4, §5
Test [5] has as its system Escherichia coli ATCC 11775. Briefly: serial dilution test in the microtiter system, MIC. Type of test: cell-based. The conditions noted are these: ATCC11775, E. Coli ATCC 11775, 37° C., 18-20 hours. Here is the method:
as §1, §2, §3, §4, §5

For test [6], the system named is Escherichia coli ATCC 9637. Briefly: serial dilution test in the microtiter system, MIC. Type of test: cell-based. The conditions noted are these: ATCC9637, E. Coli ATCC 9637, 37° C., 18-20 hours. Here is the method:
as §1, §2, §3, §4, §5

Test [7] has as its system Pseudomonas aeruginosa ATCC 10145. Briefly: serial dilution test in the microtiter system, MIC. Type of test: cell-based. The settings on record: ATCC10145, Pseud. aerug. ATCC 10145, 37° C., 18-20 hours. Here is the method: as §1, §2, §3, §4, §5
Test [8] deals with Pseudomonas aeruginosa Hamburgensis. The test can be described thus: serial dilution test in the microtiter system, MIC. Type of test: cell-based. The settings on record: Pseud. aerug. hamb., 37° C., 18-20 hours. Here is the method:
as §1, §2, §3, §4, §5

For test [9], the system named is Pseudomonas aeruginosa Walter. Briefly: serial dilution test in the microtiter system, MIC. Type of test: cell-based. The settings on record: Pseud. aerug. Walter, 37° C., 18-20 hours. Here is the method:
as §1, §2, §3, §4, §5

For the next test, the system named is E.coli ATCC 11775. The test can be described thus: in vivo test against experimental E. coli infection in mice. Details: species or system Female NMRI mice. The conditions noted are these: Escherichia coli, ATCC11775, sc, 168 h, dose at which 50% of the animals survived, subcutaneous, three times first day, twice second day, observation 7 days. Here is the method: (§6) The compounds according to the invention were tested in vivo in mice against experimental infections. As pathogenic bacteria E.coli ATCC 11775 and Pseudomonas aeruginosa Walter were used. An intraperitoneal infection was induced in each mouse with 0.2 ml of a 5% mucin suspension of the bacteria corresponding to about 1.4×10^6 E. coli germs and 1.3×10^6 pseudomonas germs/mouse. Female NMRI mice were used, divided into groups of 10 animals. Two groups were untreated and the remaining groups were treated with different doses of the penicillins to be tested to determine the ED50 (dose at which 50% of the animals survived). The groups infected with E. coli were on the first day treated with the test compound three times ([…] post infectionem) and on the second day twice. The groups with the pseudomonas infection were on the first day treated with the test compound 6 times (1, 3, 5, 7, 9 and 11 hours post infectionem) and on the second and third day twice.
(§7) The observation time was in both cases 7 days.

Test [10] deals with Pseudomonas aeruginosa Walter. Briefly: in vivo test against experimental Pseudomonas infection in mice. More on the design: species or system Female NMRI mice. The settings on record: sc, 168 h, dose at which 50% of the animals survived, subcutaneous, 6 times first day, twice on second and third day, observation 7 days. Here is the method: as §6, §7

The results in this text go back to US4289775A, “Penicillins” (Karl Thomae GmbH, priority 1979, dated 1981).

Structures are written as SMILES. Values after ≈ are worked out from the molar mass of the structure shown.

As to `CC1(C)S[C@@H]2[C@H](NC(=O)[C@H](NC(=O)N3CCNC3=O)c3ccccc3)C(=O)N2[C@H]1C(=O)O` [F, azlocillin, reference compound], the MIC in test [1] stood at 40 µg/mL (≈ 86.7 µM); in test [2] it was 40 µg/mL (≈ 86.7 µM); in [3] it was 1.25 µg/mL (≈ 2.71 µM); in test [4], 5 µg/mL (≈ 10.8 µM).

For `CCOC(=O)CCNc1ncc(NC(=O)NC(C(=O)NC2C(=O)N3C2SC(C)(C)C3C(=O)O)c2ccc(O)cc2)c(O)n1` [D, D-α-[3-(2-{2'-ethoxycarbonylethylamino}-4-hydroxy-5-pyrimidinyl)-ureido]-p-hydroxy-benzylpencillin sodium], the MIC in [5] is 0.6 µg/mL; in [6], 0.3 µg/mL; in test [1] it was 10 µg/mL; in [2] it was 10 µg/mL; in [3], 0.3 µg/mL; in test [7] it was 2.5 µg/mL. The MIC worked out at 2.5 µg/mL in test [8], 2.5 µg/mL in [9] and 1.25 µg/mL in [4]. In the test with E.coli ATCC 11775, this compound registered an ED50 of 4.2 mg/kg.

Regarding `COCCNc1ncc(NC(=O)N[C@@H](C(=O)N[C@@H]2C(=O)N3[C@@H]2SC(C)(C)[C@@H]3C(=O)O)c2ccc(O)cc2)c(O)n1` [A, D-α-[3-(4-hydroxy-2-{2'-methoxyethylamino}-5-pyrimidinyl)-ureido]-p-hydroxybenzyl-penicillin sodium], the minimum inhibitory concentration (MIC) in test [5] came to 1.25 µg/mL; in test [6] it was 1.25 µg/mL; in test [1] it was 40 µg/mL; in [2] it was 20 µg/mL; in test [3], 0.6 µg/mL; in test [7] it was 1.25 µg/mL. Besides, the results for the MIC in test [8], in [9] and in test [4] were 1.25 µg/mL, 5 µg/mL and 0.6 µg/mL, respectively. Moreover, the ED50 in the test on E.coli ATCC 11775 is 2 mg/kg; in test [10], 1.5 mg/kg.

On to `CC1(C)S[C@@H]2[C@H](NC(=O)[C@H](NC(=O)Nc3cnc(NCCCO)nc3O)c3ccc(O)cc3)C(=O)N2[C@H]1C(=O)O` [B, D-α-[3-(4-hydroxy-2-{3'-hydroxypropylamino-}-5-pyrimidinyl)-ureido]-p-hydroxy-benzylpenicillin sodium], for which the MIC in [5] came out at 0.6 µg/mL; in test [6], 0.6 µg/mL; in [1] it was 10 µg/mL; in [2], 10 µg/mL; in [3], 0.3 µg/mL; in test [7] it was 1.25 µg/mL. In addition, the MIC was found to be 1.25 µg/mL in [8], 5 µg/mL in test [9] and 1.25 µg/mL in [4]. The ED50 is 0.8 mg/kg in the test on E.coli ATCC 11775 and 1.2 mg/kg in [10].
